Laboratory results taken from US20200095296A1, “USE OF PEPTIDES AS BIOMARKERS IN THE DIAGNOSIS, CONFIRMATION AND TREATMENT OF A NEUROLOGICAL DISORDER AND TCR AND/OR HLA IMMUNOPROFILING IN NEURODEGENERATIVE DISEASE” (THE TRUSTEES OF COLUMBIA UNIVERSITY IN THE CITY OF NEW YORK, priority 2017, published 2020).
Where no end group is shown, it is not given here. [ ]: non-standard residue; d: D form. pT = C[C@@H](OP(=O)(O)O)[C@H](N)C(=O)O; pS = N[C@@H](COP(=O)(O)O)C(=O)O

Test system: PBMC
Experiment: IFNg/IL-5 dual ELISPOT after 14 day in vitro stimulation of PBMC with Tau peptides
Type: cell-based, human
Conditions: for PD % of Total Responders / PD Total SFC / PD Total Responders: PD donors; for % of total response / Average SFC per responder / Frequency of response / Total SFC per epitope: across all cohorts; for Total Responders / Total SFC: all three cohorts (PD, HC > 50, HC < 35); for HC < 35 Total Responders / HC < 35 Total SFC: healthy controls < 35 years old
Excerpt: It was investigated whether T cell responses against Tau were detectable in the PD and healthy control (HC) donors. To this end, a panel of overlapping peptides spanning through the entire sequence of the Tau protein was synthesized. Since it is known that the Tau protein is post-translationally modified (mainly by phosphorylation), in several instances phosphorylated peptides were also synthesized. In all, 55 non-modified 16-mers overlapping by 8 and 14 modified 16-mers were synthesized.
PD: n=16, peptides tested 14-16 times; HC above 50 years old denominated as age-matched: n=11 (9-11 times) and HC below 35 years old (HC Young): n=13 (10-13 times).
These peptides were tested utilizing the following assay strategy. Briefly, PBMC from each donor were stimulated in vitro for 14 days as described (Hinz, D., 2015) with pools of 10 to 16 peptides each. After 14 days, the T cell cultures were assayed with IFNg/IL-5 dual ELISPOT assays […]. Positive pools were deconvoluted at day 17 to identify the specific individual epitopes recognized.

[1] = healthy controls > 50 years old

Row | Sequence | PD/HC > 50 Ratio of % Responders | PD/HC > 50 Ratio of Response | HC > 50 % of Total Responders [%] | HC > 50 Total SFC (HC > 50, dominant epitopes) [SFC] | PD % of Total Responders [%] | PD Total SFC (dominant epitopes) [SFC] | % of total response [%] | Average SFC per responder [SFC] | Frequency of response | Total SFC per epitope [SFC] | PD Total Responders | PD Total SFC [SFC] | Total Responders | Total SFC [SFC] | HC < 35 Total Responders | HC < 35 Total SFC [SFC] | HC > 50 Total Responders [1] | HC > 50 Total SFC [1] [SFC]
1 | LATLADEVSASLAKQG (listed as Homo sapiens) [Tau 16-mer, start 425] | 0.3 | 0.5 | 75.0 | 2530 | 25.0 | 1263 | 1.1 | 948 | 7.5 | 3793 |  |  |  |  |  |  |  | 
2 | PAPKTPPSSGEPPKSG (PAPK[pT]PPSSGEPPKSG; listed as Homo sapiens) |  |  |  |  |  |  |  |  |  |  | 0 | 0 | 1 | 107 | 0 | 0 | 1 | 107
3 | PAPKXPPSSGEPPKSG (PAPK[pT]PPSSGEPPKSG) | 1.8 | 2.4 | 19.2 | 6207 | 34.6 | 14672 | 12.2 | 1639 | 49.1 | 42624 | 9 | 14672 | 26 | 42624 | 12 | 21745 | 5 | 6207
4 | PMPDLKNVKSKIGSTE (PMPDLKNVKSKIG[pS]TE; listed as Homo sapiens) [Tau 16-mer, start 249] | 1.7 | 2.2 | 30.0 | 6084 | 50.0 | 13363 | 5.7 | 1982 | 18.9 | 19815 | 5 | 13363 | 10 | 19815 | 2 | 368 | 3 | 6084
5 | PMPDLKNVKSKIGZTE | 1.3 | 1 | 36.4 | 5168 | 45.5 | 5175 | 3.2 | 1006 | 20.8 | 11063 | 5 | 5175 | 11 | 11063 | 2 | 720 | 4 | 5168
6 | SLEDEAAGHVTQARMV (listed as Homo sapiens) [Tau 16-mer, start 113] | 2.0 | 11 | 33.3 | 640 | 66.7 | 7058 | 2.2 | 1283 | 11.3 | 7698 |  |  |  |  |  |  |  | 
7 | SNVSSTGSIDMVDSPQ (listed as Homo sapiens) [Tau 16-mer, start 409] |  |  |  |  |  |  |  |  |  |  | 2 | 710 | 3 | 1767 | 0 | 0 | 1 | 1057
8 | SNVSSTGSIDMVDZPQ |  |  |  |  |  |  |  |  |  |  | 4 | 1484 | 4 | 1484 | 0 | 0 | 0 | 0
9 | SVQIVYKPVDLSKVTS (listed as Homo sapiens) | 0.9 | 1.1 | 42.1 | 5460 | 36.8 | 6203 | 4.0 | 731 | 35.8 | 13888 |  |  |  |  |  |  |  | 
10 | TPPTREPKKVAVVRTP (listed as Homo sapiens) |  |  |  |  |  |  |  |  |  |  | 1 | 1707 | 1 | 1707 | 0 | 0 | 0 | 0
11 | TPPTREPKKVAVVRXP |  |  |  |  |  |  |  |  |  |  | 4 | 1813 | 7 | 2210 | 3 | 397 | 0 | 0
12 | TRIPAKTPPAPKTPPS (listed as Homo sapiens) [Tau 16-mer, start 169] | 1.0 | 8.1 | 33.3 | 180 | 33.3 | 145 | 1.1 | 1299 | 5.7 | 3897 |  |  |  |  |  |  |  | 
13 | VDLSKVTSKCGSLGNI (listed as Homo sapiens) [Tau 16-mer, start 313] | 2.0 | 7.5 | 28.6 | 897 | 57.1 | 671 | 2.8 | 1409 | 13.2 | 9861 |  |  |  |  |  |  |  | 
14 | VYKSPVVSGDTSPRHL (listed as Homo sapiens) [Tau 16-mer, start 393] | 1.0 | 2.6 | 42.9 | 3397 | 42.9 | 8951 | 3.8 | 1915 | 13.2 | 13408 |  |  |  |  |  |  |  | 
